Results as given in patent EP1137644B9, “BENZOFURAN DERIVATIVES, THEIR PREPARATION AND USE” (H. Lundbeck A/S, priority 1998, dated 2000).
Structures can show the parent of a compound that is named as a salt.

Key:
[1] = system: serotonin reuptake; assay: Inhibition of 3H-5-HT uptake into rat brain synaptosomes; type: biochemical; settings: ^3H-5-HT accumulation into whole rat brain synaptosomes
Procedure: Inhibition of ^3H-5-HT Uptake Into Rat Brain Synaptosomes
Using this method, the ability of drugs to inhibit the accumulation of ^3H-5-HT into whole rat brain synaptosomes is determined in vitro. The assay was performed as described by Hyttel, J., Psychopharmacology 1978, 60, 13.

[2] = system: Human 5-HT1A Receptors; assay: Inhibition of 3H-5-CT binding to human 5-HT1A receptors; settings: cloned human 5-HT1A receptors expressed in HeLa cells (HA7)
Procedure: The affinity of the compounds of the invention to 5-HT1A receptors was determined by measuring the inhibition of binding of a radioactive ligand at 5-HT1A receptors as described in the following test:
Inhibition of ^3H-5-CT Binding to Human 5-HT1A Receptors
By this method the inhibition by drugs of the binding of the 5-HT1A agonist ^3H-5-carboxamido tryptamine (^3H-5-CT) to cloned human 5-HT1A receptors stably expressed in transfected HeLa cells (HA7) (Fargin, A. et al, J. Biol. Chem., 1989, 264, 14848) is determined in vitro. The assay was performed as a modification of the method described by Harrington, M.A. et al, J. Pharmacol. Exp. Ther., 1994, 268, 1098. Human 5-HT1A receptors (40 µg of cell homogenate) were incubated for 15 minutes at 37 °C in 50 mM Tris buffer at pH 7.7 in the presence of ^3H-5-CT. Non-specific binding was determined by including 10 µM of metergoline. The reaction was terminated by rapid filtration through Unifilter GF/B filters on a Tomtec Cell Harvester. Filters were counted in a Packard Top Counter.

Row | Inhibition of ^3H- 5-CT binding % inhibition at 100 nM [2] [% inh. at 100 nM] | SMILES | IC50 [1] [nM] | IC50 ([2]; 15 minutes at 37 °C, pH 7.7) [nM]
1 |  | CN(CCCC1(c2ccc(F)cc2)OCc2cc(C#N)ccc21)CCc1cccc2c1OCCO2 (stereo not shown) [Compound 1c, 1-[3-[[2-(1,4-Benzodioxan-5-yl)ethyl]methylamino]propyl]-1-(4-fluorophenyl)-1,3-dihydroisobenzofuran-5-carbonitrile oxalate] | 85 | 
2 |  | CN(CCCC1(c2ccc(F)cc2)OCc2cc(C#N)ccc21)CCc1c[nH]c2c(F)cccc12 (stereo not shown) [Compound 12b, 1-[3-[[2-(7-Fluoro-1H-indol-3-yl)ethyl]methylamino]propyl]-1-(4-fluorophenyl)-1,3-dihydroisobenzofuran-5-carbonitrile] | 10 | 
3 | 58 | C#CCN(CCCc1c[nH]c2ccccc12)CCCC1(c2ccc(F)cc2)OCc2cc(C#N)ccc21 (stereo not shown) [Compound 4u, 1-[3-[[3-(1H-Indol-3-yl)propyl](prop-2-yn-1-yl)amino]propyl]-1-(4-fluorophenyl)-1,3-dihydroisobenzofuran-5-carbonitrile] |  | 
4 |  | CN(CCCCc1cccc2c1OCCO2)CCCC1(c2ccc(F)cc2)OCc2cc(C#N)ccc21 (single isomer, unassigned; (+)) [Compound 1a, (+)-1-[3-[[4-(1,4-Benzodioxan-5-yl)butyl]methylamino]propyl]-1-(4-fluorophenyl)-1,3-dihydroisobenzofuran-5-carbonitrile] | 60 | 39
5 | 76 | C=CCN(CCCc1cccc(OC)c1)CCCC1(c2ccc(F)cc2)OCc2cc(C#N)ccc21 (stereo not shown) [Compound 4l, 1-(4-Fluorophenyl)-1-[3-[[3-(3-methoxyphenyl)propyl](prop-2-en-1-yl)amino]propyl]-1,3-dihydroisobenzofuran-5-carbonitrile] |  | 
6 |  | N#Cc1ccc2c(c1)COC2(CCCN1CCC(c2c[nH]c3cc(Cl)ccc23)CC1)c1ccc(F)cc1 (stereo not shown) [Compound 2o, 1-[3-[4-(6-chloro-1H-Indol-3-yl)piperidinyl]propyl]-1-(4-fluorophenyl)-1,3-dihydroisobenzofuran-5-carbonitrile] | 31 | 
7 | 65 | COc1ccccc1OCCCN(C)CCCC1(c2ccc(F)cc2)OCc2cc(C#N)ccc21 (stereo not shown) [Compound 4m, 1-(4-Fluorophenyl)-1-[3-[[3-(2-methoxyphenoxy)propyl]methylamino]propyl]-1,3-dihydroisobenzofuran-5-carbonitrile] |  | 
8 |  | COc1ccccc1N1CCN(CCCC2(c3ccc(F)cc3)OCc3cc(C#N)ccc32)CC1 (stereo not shown) [Compound 2a, 1-(4-Fluorophenyl)-1-[3-[4-(2-methoxyphenyl)piperazinyl]propyl]-1,3-dihydroisobenzofuran-5-carbonitrile] | 340 | 
9 |  | CN(CCCc1cccc2c1OCCO2)CCCC1(c2ccc(F)cc2)OCc2cc(C#N)ccc21 (single isomer, unassigned; (+)) [Compound 1b, (+)-1-[3-[[3-(1,4-Benzodioxan-5-yl)propyl]methylamino]propyl]-1-(4-fluorophenyl)-1,3-dihydroisobenzofuran-5-carbonitrile oxalate] | 13 | 
